Measurements taken from patent US10413505B1, “Pharmaceutical compositions and methods of using the same” (priority 2017, dated 2019).

Key:
[1] = Example 2 plasma pharmacokinetics, normal renal function vs severe renal impairment; details: single intranasal 160 mg cocaine HCl, plasma
[2] = Example 1 urinary pharmacokinetics after intranasal administration; assay type: in vivo, human; details: healthy subjects; single intranasal 160 mg cocaine HCl; urine 0-12 h; metabolites as cocaine equivalents
Method: A single dose of a pharmaceutical composition was administered to both nostrils using cottonoid pledgets. […] Each pledget absorbed approximately 1 mL of pharmaceutical composition (i.e., 40 mg cocaine hydrochloride). Two soaked pledgets were placed into each nasal cavity of the subject and against the anterior septum for 20 minutes; thus, a total dose of 160 mg of cocaine hydrochloride was administered.
Urine samples were collected pre-dose and at the following intervals from the start of intranasal application of the pharmaceutical composition: 0-2 hours, 2-4 hours, 4-8 hours, and 8-12 hours. […] A 25-μL aliquot of each urine sample was processed by liquid-liquid extraction.
Urinary pharmacokinetic parameters were analyzed using noncompartmental methods.

[3] = Example 3 plasma pharmacokinetics, normal hepatic function vs hepatic impairment
[4] = normal hepatic function, single intranasal 160 mg cocaine HCl, plasma
[5] = plasma, subjects with hepatic impairment, single intranasal dose

Structure (SMILES): COC(=O)[C@@H]1[C@H]2CC[C@@H](C[C@@H]1O)N2C [EME, ecgonine methyl ester]
- AUC0→t (Geometric mean) ([1]; normal renal function): 41.8 ng·h/mL
- AUC0→t (Max) ([1]; normal renal function): 231 ng·h/mL
- AUC0→t (Mean) ([1]; normal renal function): 64.0 ng·h/mL
- AUC0→t (Median) ([1]; normal renal function): 46.3 ng·h/mL
- AUC0→t (Min) ([1]; normal renal function): 9.3 ng·h/mL
- AUC0→∞ (Geometric mean) ([1]; normal renal function): 79.3 ng·h/mL
- AUC0→∞ (Max) ([1]; normal renal function): 241 ng·h/mL
- AUC0→∞ (Mean) ([1]; normal renal function): 94.5 ng·h/mL
- AUC0→∞ (Median) ([1]; normal renal function): 66.8 ng·h/mL
- AUC0→∞ (Min) ([1]; normal renal function): 44.4 ng·h/mL
- Clast (Geometric mean) ([1]; normal renal function): 1.505 ng/mL
- Clast (Max) ([1]; normal renal function): 2.58 ng/mL
- Clast (Mean) ([1]; normal renal function): 1.583 ng/mL
- Clast (Median) ([1]; normal renal function): 1.42 ng/mL
- Clast (Min) ([1]; normal renal function): 1.070 ng/mL
- Cmax (Geometric mean) ([1]; normal renal function): 5.8 ng/mL
- Cmax (Max) ([1]; normal renal function): 19.2 ng/mL
- Cmax (Mean) ([1]; normal renal function): 7.5 ng/mL
- Cmax (Min) ([1]; normal renal function): 1.8 ng/mL
- Tlast (Geometric mean) ([1]; normal renal function): 12.3 h
- Tlast (Max) ([1]; normal renal function): 32.0 h
- Tlast (Mean) ([1]; normal renal function): 13.5 h
- Tlast (Median) ([1]; normal renal function): 12.0 h
- Tlast (Min) ([1]; normal renal function): 480 min
- Tmax (Geometric mean) ([1]; normal renal function): 2.196 h
- Tmax (Max) ([1]; normal renal function): 4.00 h
- Tmax (Mean) ([1]; normal renal function): 2.698 h
- Tmax (Median) ([1]; normal renal function): 3.0 h
- Tmax (Min) ([1]; normal renal function): 20 min
- t1/2 (Geometric mean) ([1]; normal renal function): 5.02 h
- t1/2 (Max) ([1]; normal renal function): 6.67 h
- t1/2 (Mean) ([1]; normal renal function): 5.12 h
- t1/2 (Median) ([1]; normal renal function): 5.53 h
- t1/2 (Min) ([1]; normal renal function): 217 min
- AUC0→t (Geometric mean) ([1]; severe renal impairment): 180.2 ng·h/mL
- AUC0→t (Max) ([1]; severe renal impairment): 382 ng·h/mL
- AUC0→t (Mean) ([1]; severe renal impairment): 201.1 ng·h/mL
- AUC0→t (Median) ([1]; severe renal impairment): 196 ng·h/mL
- AUC0→t (Min) ([1]; severe renal impairment): 61.0 ng·h/mL
- AUC0→∞ (Geometric mean) ([1]; severe renal impairment): 244.5 ng·h/mL
- AUC0→∞ (Max) ([1]; severe renal impairment): 527 ng·h/mL
- AUC0→∞ (Mean) ([1]; severe renal impairment): 267.5 ng·h/mL
- AUC0→∞ (Median) ([1]; severe renal impairment): 242 ng·h/mL
- AUC0→∞ (Min) ([1]; severe renal impairment): 143.9 ng·h/mL
- Clast (Geometric mean) ([1]; severe renal impairment): 2.218 ng/mL
- Clast (Max) ([1]; severe renal impairment): 5.85 ng/mL
- Clast (Mean) ([1]; severe renal impairment): 2.46 ng/mL
- Clast (Median) ([1]; severe renal impairment): 1.93 ng/mL
- Clast (Min) ([1]; severe renal impairment): 1.51 ng/mL
- Cmax (Geometric mean) ([1]; severe renal impairment): 10.3 ng/mL
- Cmax (Max) ([1]; severe renal impairment): 20.5 ng/mL
- Cmax (Mean) ([1]; severe renal impairment): 11.9 ng/mL
- Cmax (Median) ([1]; severe renal impairment): 11.5 ng/mL
- Cmax (Min) ([1]; severe renal impairment): 3.2 ng/mL
- Tlast (Geometric mean) ([1]; severe renal impairment): 31.5 h
- Tlast (Max) ([1]; severe renal impairment): 32.0 h
- Tlast (Mean) ([1]; severe renal impairment): 31.5 h
- Tlast (Median) ([1]; severe renal impairment): 32.0 h
- Tlast (Min) ([1]; severe renal impairment): 1680 min
- Tmax (Geometric mean) ([1]; severe renal impairment): 3.715 h
- Tmax (Max) ([1]; severe renal impairment): 12.00 h
- Tmax (Mean) ([1]; severe renal impairment): 4.53 h
- Tmax (Median) ([1]; severe renal impairment): 4.00 h
- Tmax (Min) ([1]; severe renal impairment): 90 min
- t1/2 (Geometric mean) ([1]; severe renal impairment): 13.16 h
- t1/2 (Max) ([1]; severe renal impairment): 25.70 h
- t1/2 (Mean) ([1]; severe renal impairment): 13.97 h
- t1/2 (Median) ([1]; severe renal impairment): 12.27 h
- t1/2 (Min) ([1]; severe renal impairment): 488 min
- Total Urinary Recovery (Geometric mean) [2]: 252 µg
- Total Urinary Recovery (Mean) [2]: 275 µg
- Total Urinary Recovery (Median) [2]: 276 µg
- Urinary Recovery (Geometric mean) [2]: 0.240 % dose
- Urinary Recovery (Mean) [2]: 0.262 % dose
- Urinary Recovery (Median) [2]: 0.263 % dose
- AUClast, times higher than normal subjects ([3]; Grade B hepatic impairment): approximately 2.4 times
- AUClast, times higher than normal subjects ([3]; Grade C hepatic impairment): 2.2 times
- AUC0→t (Geometric mean) [3, 4]: 61.2 ng·h/mL
- AUC0→t (Max) [3, 4]: 198 ng·h/mL
- AUC0→t (Mean) [3, 4]: 72.9 ng·h/mL
- AUC0→t (Median) [3, 4]: 59.1 ng·h/mL
- AUC0→t (Min) [3, 4]: 24.5 ng·h/mL
- AUC0→∞ (Geometric mean) [3, 4]: 76.1 ng·h/mL
- AUC0→∞ (Max) [3, 4]: 212 ng·h/mL
- AUC0→∞ (Mean) [3, 4]: 89.6 ng·h/mL
- AUC0→∞ (Median) [3, 4]: 72.9 ng·h/mL
- AUC0→∞ (Min) [3, 4]: 31.5 ng·h/mL
- Clast (Geometric mean) [3, 4]: 1.67 ng/mL
- Clast (Max) [3, 4]: 3.72 ng/mL
- Clast (Mean) [3, 4]: 1.85 ng/mL
- Clast (Median) [3, 4]: 1.60 ng/mL
- Clast (Min) [3, 4]: 1.00 ng/mL
- Cmax (Geometric mean) [3, 4]: 8.75 ng/mL
- Cmax (Max) [3, 4]: 26.8 ng/mL
- Cmax (Mean) [3, 4]: 10.0 ng/mL
- Cmax (Median) [3, 4]: 7.81 ng/mL
- Cmax (Min) [3, 4]: 3.83 ng/mL
- Tlast (Geometric mean) [3, 4]: 15.4 h
- Tlast (Max) [3, 4]: 28.0 h
- Tlast (Mean) [3, 4]: 16.5 h
- Tlast (Median) [3, 4]: 12.0 h
- Tlast (Min) [3, 4]: 600 min
- Tmax (Geometric mean) [3, 4]: 1.33 h
- Tmax (Max) [3, 4]: 3.00 h
- Tmax (Mean) [3, 4]: 1.45 h
- Tmax (Median) [3, 4]: 1.25 h
- Tmax (Min) [3, 4]: 30 min
- t1/2 (Geometric mean) [3, 4]: 5.99 h
- t1/2 (Max) [3, 4]: 9.97 h
- t1/2 (Mean) [3, 4]: 6.27 h
- t1/2 (Median) [3, 4]: 5.69 h
- t1/2 (Min) [3, 4]: 250 min
- AUC0→t (Geometric mean) [3, 5]: 146 ng·h/mL
- AUC0→t (Mean) [3, 5]: 185 ng·h/mL
- AUC0→t (Median) [3, 5]: 140 ng·h/mL
- AUC0→∞ (Geometric mean) [3, 5]: 212 ng·h/mL
- AUC0→∞ (Mean) [3, 5]: 233 ng·h/mL
- AUC0→∞ (Median) [3, 5]: 185 ng·h/mL
- Clast (Geometric mean) [3, 5]: 1.57 ng/mL
- Clast (Mean) [3, 5]: 1.65 ng/mL
- Clast (Median) [3, 5]: 1.67 ng/mL
- Cmax (Geometric mean) [3, 5]: 11.3 ng/mL
- Cmax (Mean) [3, 5]: 16.1 ng/mL
- Cmax (Median) [3, 5]: 9.11 ng/mL
- Tlast (Geometric mean) [3, 5]: 26.3 h
- Tlast (Mean) [3, 5]: 27.7 h
- Tlast (Median) [3, 5]: 32.0 h
- Tmax (Geometric mean) [3, 5]: 2.90 h
- Tmax (Mean) [3, 5]: 3.84 h
- Tmax (Median) [3, 5]: 4.00 h
- t1/2 (Geometric mean) [3, 5]: 8.67 h
- t1/2 (Mean) [3, 5]: 9.26 h
- t1/2 (Median) [3, 5]: 8.3 h
